Data reported in PubChem BioAssay (NCI).
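All cell lines were grown in 96-well plates and treated with compound for 48 hours. GI50 = concentration required for 50% inhibition of growth. Definition used: TGI = concentration required for complete inhibition of growth.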

How the values were obtained:
Test in all cases: inhibition of tumour cell growth, NCI panel, 48 h
IGROV1 ovarian = test system: IGROV1 ovarian
OVCAR-4 ovarian = test system: OVCAR-4 ovarian
MALME-3M melanoma = test system: MALME-3M melanoma
SK-MEL-2 melanoma = test system: SK-MEL-2 melanoma
MOLT-4 leukemia = test system: MOLT-4 leukemia
PC-3 prostate = test system: PC-3 prostate
KM12 colon = test system: KM12 colon
MDA-MB-231 breast = test system: MDA-MB-231 breast
DU-145 prostate = test system: DU-145 prostate
RXF 393 renal = test system: RXF 393 renal

Structure (SMILES) | TGI (IGROV1 ovarian) | TGI (OVCAR-4 ovarian) | TGI (MALME-3M melanoma) | TGI (SK-MEL-2 melanoma) | TGI (MOLT-4 leukemia) | TGI (PC-3 prostate) | TGI (KM12 colon) | TGI (MDA-MB-231 breast) | TGI (DU-145 prostate) | TGI (RXF 393 renal) | GI50 (IGROV1 ovarian) | GI50 (RXF 393 renal) | GI50 (KM12 colon) | GI50 (MALME-3M melanoma) | GI50 (SK-MEL-2 melanoma) | GI50 (PC-3 prostate) | GI50 (OVCAR-4 ovarian) | GI50 (MDA-MB-231 breast) | GI50 (MOLT-4 leukemia) | GI50 (DU-145 prostate)
CCOC(=O)C(C)(C)Oc1ccc2c(-c3ccccc3)cc(=O)oc2c1 | > 100 µM | > 100 µM | 73.6 µM | 48.7 µM | 54.6 µM |  |  |  |  |  |  |  |  |  |  |  |  |  |  | 
COc1ccc(CC2c3cc4c(cc3CCN2C)OCO4)c(C=O)c1OC (stereo unspecified) | > 100 µM | > 100 µM | > 100 µM | > 100 µM | > 100 µM | > 100 µM | > 100 µM | > 100 µM | > 100 µM |  |  |  |  |  |  |  |  |  |  | 
CCn1c(C)nn2c(=O)c3ccccc3nc2c1=O | > 100 µM | > 100 µM | > 100 µM | > 100 µM | > 100 µM |  | > 100 µM |  |  |  |  |  |  |  |  |  |  |  |  | 
C1=C2/CC[C@H](Sc3ccccc3)C2C2(CCCCC/1)OCCO2 (stereo partly specified) | > 100 µM |  | 55.2 µM | 32.7 µM | > 100 µM |  | 94 µM |  |  | 43.4 µM |  |  |  |  |  |  |  |  |  | 
CC(=O)[CH-]C(=O)c1ccccc1.CC(=O)[CH-]C(=O)c1ccccc1.CN(C)c1ccc([O-])cc1.CN(C)c1ccc([O-])cc1.Cl.[Ti+4] | > 100 µM |  | 26.4 µM | > 31.6 µM |  |  | 23.8 µM |  |  | > 31.6 µM | 46.8 µM | 27.3 µM | 13.2 µM | 14.8 µM | > 31.6 µM |  |  |  |  | 
CC1(C(=O)O)CCC[C@@]2(C)C1CC[C@@]1(C)c3cocc3CCC21 (stereo partly specified) | > 100 µM | > 100 µM | > 100 µM | > 100 µM | > 100 µM |  | > 100 µM |  |  | > 100 µM |  |  |  |  |  |  |  |  |  | 
Clc1ccccc1C(SCc1ccccc1)SCc1ccccc1 | > 100 µM | > 100 µM | > 100 µM | > 100 µM | > 100 µM | > 100 µM | > 100 µM |  | > 100 µM | > 100 µM |  |  |  |  |  |  |  |  |  | 
COC(CCC[N+](C)(C)C)CC[N+](C)(C)C (stereo unspecified) | > 100 µM | > 100 µM | > 100 µM |  | > 100 µM | > 100 µM |  |  | > 100 µM | > 100 µM |  |  |  |  |  |  |  |  |  | 
CNC(=S)OCCC(C)CCCC(C)C (stereo unspecified) | 31.7 µM | 30.9 µM | 36.8 µM | 26.7 µM | 27.1 µM |  | 27.8 µM |  |  | 30.3 µM |  |  |  |  |  |  |  |  |  | 
COc1cc(/C=N\NC(=O)CN2CCN(c3cc4c(cc3F)c(=O)c(C(=O)N/N=C/c3cc(OC)c(OC)c(OC)c3)cn4C3CC3)CC2)cc(OC)c1OC | 11.8 µM | > 100 µM | 0.712 µM | 0.513 µM | > 100 µM | 0.656 µM |  | 0.781 µM | > 20 µM | 30.4 µM | 0.365 µM | 1.63 µM |  | 0.235 µM | 0.204 µM | 0.244 µM | 0.379 µM | 0.25 µM | 0.331 µM | 0.495 µM
COC(=O)C1(C(C)C)CCc2c(OC)ccc(OC)c2C1=O (stereo unspecified) | > 100 µM | > 100 µM | > 100 µM | > 100 µM | > 100 µM |  | > 100 µM |  |  |  |  |  |  |  |  |  |  |  |  | 
Nc1ccccc1S(=O)(=O)N(CC(=O)O)c1ccccc1 | > 100 µM | > 100 µM | > 100 µM | > 100 µM | > 100 µM |  |  |  |  | > 100 µM |  |  |  |  |  |  |  |  |  | 
O=C(CCc1nc(=S)[nH][nH]1)Nc1ccc(Cl)c(Cl)c1 | > 100 µM | > 100 µM | > 100 µM | 31.2 µM | > 100 µM |  | > 100 µM |  |  |  |  |  |  |  |  |  |  |  |  | 
COC(=O)c1ccccc1NC(=O)C(=O)Cc1nc2c3c(ccc2[nH]c1=O)C(=O)c1ccccc1C3=O | 99.1 µM | 98 µM | 31 µM | > 100 µM | 99.6 µM |  | > 100 µM |  |  | 26.3 µM |  |  |  |  |  |  |  |  |  | 
C[N+](C)(C)CC(=O)N/N=C(/CC(=O)CC(C1=C(O)c2ccccc2OC1)c1ccccc1)C(=O)Nc1cccc(Cl)c1 (stereo unspecified) | > 100 µM | > 100 µM |  | > 100 µM | > 100 µM | > 100 µM | > 100 µM | > 100 µM | > 100 µM | > 100 µM |  |  |  |  |  |  |  |  |  | 
O=C(Nc1nc2ccc([N+](=O)[O-])cc2s1)C(=O)C(C1OC(=O)c2ccccc21)[N+](=O)[O-] (stereo unspecified) | > 100 µM | > 100 µM | > 100 µM | > 100 µM | > 100 µM |  | > 100 µM |  |  | > 100 µM |  |  |  |  |  |  |  |  |  | 
CCN(CC)N=Nc1c(C(N)=O)n[nH]c1C | > 100 µM | > 100 µM | > 100 µM | > 100 µM |  | > 100 µM | > 100 µM | > 100 µM | > 100 µM | > 100 µM |  |  |  |  |  |  |  |  |  | 
CCOC1Oc2ccccc2C(=O)/C1=C/Nc1ccc(C(C)=O)cc1 (stereo unspecified) | > 100 µM | > 100 µM |  | > 100 µM | 53.3 µM | 93.3 µM | 50.2 µM | 47.8 µM | > 100 µM | 72.6 µM | 19.5 µM | 27 µM | 19.1 µM |  | 40.1 µM | 25.4 µM | 49 µM | 20 µM | 15.8 µM | 29.6 µM
Cc1ccnc2c1ccc1c(C)ccnc12 | 13.6 µM | 4.23 µM | 5.27 µM | 18.3 µM |  | 15.5 µM | 12 µM | 21.3 µM | 14.2 µM | 15.1 µM | 0.471 µM | 0.729 µM | 0.504 µM | 0.364 µM | 0.504 µM | 0.43 µM | 0.316 µM | 0.673 µM |  | 0.501 µM
NC1=NCCC1(c1ccccc1)c1ccccn1 (stereo unspecified) | > 100 µM | > 100 µM | > 100 µM | > 100 µM | > 100 µM |  | > 100 µM |  |  | > 100 µM |  |  |  |  |  |  |  |  |  | 
CN(C)N=Nc1ccc(C(N)=O)cc1 | > 100 µM | > 100 µM | > 100 µM | > 100 µM | > 100 µM |  | > 100 µM |  |  | > 100 µM |  |  |  |  |  |  |  |  |  | 
O=C(O)CCC(NC(=O)c1ccc(Nc2nc3ccccc3nc2-c2cccs2)cc1)C(=O)O (stereo unspecified) | > 100 µM | > 100 µM | > 100 µM | > 100 µM | > 100 µM |  | > 100 µM |  |  | > 100 µM |  |  |  |  |  |  |  |  |  | 
